Patent US7301020B2, “Macrolide analogs and methods for identifying same” (priority 2003, dated 2007)

Biological target: T1, F-actin (Oryctolagus cuniculus, UniProt P68135)
T1 construct: F-actin is purified from rabbit skeletal muscle using a standard protocol; Prodan (Acrylodan) fluorophore on Cys374 (in the fluorescence spectra); from tissue; host or cells: rabbit skeletal muscle
Assay: KabC binding to and severing of Prodan-F-actin (fluorescence spectra, SDS-PAGE of supernatant and pellet)
Assay type: biochemical, rabbit
Procedure: FIG. 6: Fluorescence emission spectra of 5 μM Prodan-F-actin in the absence (a), and after selected times following the addition of KabC to 5 μM: (b), immediately after the addition of KabC (the emission spectrum is acquired in 30 seconds); (c), 15 min; (d), 39 min; (e), The spectrum of an equivalent concentration of the KabC-Prodan-G-actin complex. Inset: SDS-PAGE Analysis of KabC binding to F-actin. 100 μL of F-actin (10 μM) in […] was treated each with KabC (a: 0; b: 1; c: 4; d: 10 μM) for 30 min and airfuged at 120,000 g for another 30 min. Supernatant (S) and pellet (P) of each sample was run on SDS-PAGE.
F-actin: F-actin is purified from rabbit skeletal muscle using a standard protocol developed in the PI's laboratory (Marriott et al, 1988). The purity and activity of actin is analyzed using SDS-PAGE, polymerization assays and a motility assay (Heidecker et al, 1995).
The fluorescence emission of Prodan-F-actin is also immediately quenched upon adding KabC ([…]). However, a particularly attractive feature of the Prodan-actin probe is that the average energy of the fluorescence emission changes appreciably following the binding of ABPs, macrolides and in the transition of F-actin to G-actin. Careful analysis of the spectrum can yield information on the relative amounts of up to 4 different states in equilibrium (Marriott et al, 1988). This feature is useful to help understand how KabC binds to Prodan-F-actin. The addition of an equimolar amount of KabC to Prodan-F-actin leads to an immediate decrease in the fluorescence quantum yield, which is followed by a far slower red-shift in the average energy of the emission spectrum over time. […] In this experiment, the monomeric actin (supernatant, S) and F-actin (pellet, P) fractions of KabC treated F-actin are separated after a 60-minute incubation by high-speed centrifugation (120,000 g) and quantified by Coumassie staining of the acrylamide gel. […]

## Kabiramide C [KabC]
  F-actin severing: single and slow severing event
F-Actin:KabC 10:1 and 5:2
  actin fraction by SDS-PAGE after centrifugation: a significant fraction of the total actin exists as F-actin
sub-stoichiometric KabC (1/10th)
  depolymerization of F-actin: not depolymerized
